Patent US20080033026A1, “Antimicrobial compositions, methods and systems” (priority 2006, published 2008)

Columns and labels:
Format in all cases: cell-based
[1] = system: Candida albicans (ATCC 10231); assay: MIC and MBC determination (broth dilution)
Experimental: (§1) The determination of the MIC and MBC of 9-decenoic acid conformed to the procedure printed in the Federal Register, June 1994 and the present NCCLS M11-A4 protocol. Challenge organisms were prepared as follows. The MIC and MBC of 9-decenoic acid and the methyl ester of 9-decenoic acid were determined for the following challenge organisms: Staphylococcus aureus (ATCC 6538), Pseudomonas aeruginosa (ATCC 15442), Staphylococcus epidermidis (ATCC 12228), Klebsiella pneumoniae (ATCC 4352), Escherichia coli 0157:H7 (ATCC 43895) and Candida albicans (ATCC 10231). Stock cultures of each organism were transferred onto suitable culture media, Mueller-Hinton Agar (MHA) plates, and incubated for 24 hours (+2 hours) at 37° C. (+2° C.). On the day of the test, the top of at least three to five well-isolated colonies were transferred via wire loop to a tube containing 4 to 5 ml of Trypticase Soy Broth (TSB). The TSB culture was incubated for 2 to 6 hours and turbidity was adjusted with sterile saline to achieve the turbidity of a McFarland 0.5 Standard.
(§2) The concentrated 9-decenoic acid (97%) was diluted in Mueller-Hinton Broth (MHB) to yield a 25,000 ppm stock solution of the 9-decenoic acid. For each organism, 12 dilutions of the 9-decenoic acid in MHB were prepared ranging from 0.25% to 0.00049%. The test solution of the methyl ester of 9-decenoic acid was formulated in the same manner.
(§3) A 2-ml aliquot of appropriately diluted 9-decenoic acid solution or methyl ester of 9-decenoic acid was placed in each tube. Each tube was inoculated with 0.05 ml of a 1:10 dilution of one challenge organism. Tubes were incubated at 37° C. (±2° C.) for 20-24 hours and observed for microbial growth visually and by spectrophotometer. […] (±2° C.) for 20-24 hours and visually observed for growth.
(§4) Controls were run for sterility, viability and organism confirmation. It was determined that all cultures were viable and pure.
(§5) The MBC was defined as the concentration of 9-decenoic acid or the methyl ester of 9-decenoic acid that completely eradicated viable organisms from the test system.

[2] = system: Escherichia coli 0157:H7 (ATCC 43895); assay: MIC and MBC determination (broth dilution)
Experimental: as §1, §2, §3, §4, §5

[3] = system: Klebsiella pneumoniae (ATCC 4352); assay: MIC and MBC determination (broth dilution); conditions: Mueller-Hinton Broth, 20-24 h, 37° C.
Experimental: as §1, §2, §3, §4, §5

[4] = system: Pseudomonas aeruginosa (ATCC 15442); assay: MIC and MBC determination (broth dilution); conditions: Mueller-Hinton Broth, 20-24 h, 37° C.
Experimental: as §1, §2, §3, §4, §5

[5] = system: Staphylococcus epidermidis (ATCC 12228); assay: MIC and MBC determination (broth dilution); conditions: subculture on TSA
Experimental: as §1, §2, §3, §4, §5

all organisms = assay: Time kill test, all organisms of Example 2; conditions: even after 10 minutes, all concentrations (0.01, 0.05 and 0.1%)
Experimental: The assessment of efficacy of 9-decenoic acid against a spectrum of microorganisms was determined using the American Society for Testing and Materials (ASTM) procedure entitled “Standard Test Method for the Assessment of Microbiocidal Activity of Test Materials Using a Time-Kill Procedure,” October 1998. This procedure incorporates the recommendations described in the “Manual of Clinical Microbiology,” 5th ed., edited by A. B. Balows et al., ASM, Washington, and is directed by the Federal Register, June 1994.
Challenge organisms were prepared as follows. Cultures of the following organisms were obtained: Staphylococcus aureus (ATCC 6538), Pseudomonas aeruginosa (ATCC 15442), Staphylococcus epidermidis (ATCC 12228), Klebsiella pneumoniae (ATCC 4352), Escherichia coli 0157:H7 (ATCC 43895) and Candida albicans (ATCC 10231). The stock cultures were transferred to sterile tubes and sterile tryptic soy broth (TSB) was added to the cultures. […]
Concentrated 9-decenoic acid (97%) was diluted in filter sterilized isopropanol to yield a 25,000 ppm stock solution. […] The pH was determined for each dilution; pH values ranged from 4.4-4.1. […]
At each exposure sample time, a 1.0 ml aliquot of the inoculated 9-decenoic acid suspension was transferred to 9.0 ml of D/E Neutralizing Broth. […] The plates were enumerated, recorded and log kill determined for each time point. […]

[6] = Mueller-Hinton Broth, 20-24 h, 37° C.

C=CCCCCCCCC(=O)OC [Methyl ester of 9-decenoic acid, methyl ester of 9-decenoic acid]
MIC [1, 6]: 0.0156% | MBC ([1]; subculture on TSA): 0.0156% | MIC [2, 6]: 0.125% | MBC ([2]; subculture on TSA): 0.125% | MIC [3]: 0.0625% | MIC [4]: 0.0625% | MBC [5]: 0.25% | log reduction (all organisms): < 1 log
